Test results published in US20260200925A1, “SMALL MOLECULE INHIBITORS OF KRAS MUTATED PROTEINS” (MERCK SHARP & DOHME LLC, priority 2021, published 2026).

Experiments:
[1] = molecular target: HRAS (SEQ ID NO: 4) (Homo sapiens, UniProt P01112); experiment: SOS-catalyzed guanine nucleotide exchange (GNE) assay, HRAS
Experimental: (§1) Specifically, the SOS-catalyzed nucleotide exchange assay utilizes a preformed time-resolved fluorescence resonance energy transfer (TR-FRET) complex containing a specific biotinylated RAS protein (KRAS-G12C/V/D, HRAS, NRAS; described above) with BODIPY-GDP, and Terbium-streptavidin. Test compounds are preincubated with this complex for 60 minutes.
(§2) To assemble the preformed TR-FRET complexes, each biotinylated RAS protein is diluted to 2 μM in an EDTA Buffer (20 mM HEPES, 50 mM sodium chloride, 10 mM EDTA, and 0.01% Tween) and incubated at room temperature for one hour. This mixture is then further diluted to 90 nM in an Assay Buffer (20 mM HEPES, 150 mM sodium chloride, 10 mM magnesium chloride, and 0.005% Tween) containing 15 nM of Terbium-Streptavidin (Invitrogen, catalog #PV3577) and 900 nM of BODIPY-GDP (Invitrogen, catalog #G22360) and incubated at room temperature for six hours. It should be noted that this preformed TR-FRET complex for each of the RAS proteins was made ahead of time, aliquoted and stored at −80° C. until the day of the experiment.
(§3) Once titrations are made, 10 nL of the diluted compounds is acoustically dispensed into a 384-well assay plate (Corning, catalog #3820) using an Echo 550 (Labcyte). Each well of the assay plate subsequently receives 3 μL of a specific 3× RAS preformed TR-FRET complex and 3 μL of Assay Buffer and is incubated at room temperature for 60 minutes (preincubation time). […] The final reaction in each well of 9 μL consists of 3 mM GTP, and the specific RAS and SOS proteins in the following concentrations: KRAS-G12C/SOS=3 nM/40 nM, KRAS-G12D/SOS=1 nM/40 nM, KRAS-G12V/SOS=1.25 nM/160 nM, HRAS/SOS=1.25 nM/40 nM, and NRAS/SOS=1.25 nM/40 nM.
(§4) The TR-FRET signal is measured on an Envision (PerkinElmer) plate reader: Excitation filter=340 nm; emission 1=495 nm; emission 2=520 nm; dichroic mirror=D400/D505; delay time=100 ms. The signal of each well is determined as the ratio of the emission at 520 nm to that at 495 nm. […] The apparent effect as a function of compound concentration is fit to a four-parameter logistic equation to calculate IC50 values using Spotfire software.

[2] = system: AsPC-1 cells containing homozygous KRAS-G12D activating mutation (p-ERK); details: Homo sapiens, ASPC1, 2 h, read-out: KRAS G12D ASPC-1 IC50 (nM)
Experimental: Procedure for Cellular Phospho-ERK Assay, G12D
AsPC-1 cells (ATCC® CRL-1682™), containing homozygous KRAS-G12D activating mutation, were cultured in T150 flask in growth medium (RPMI medium 1640-GlutaMAX™—I (ThermoFisher Scientific 61870) containing 10% fetal bovine serum (ThermoFisher Scientific 10091148)). The cells were harvested in growth medium after TrypLE (ThermoFisher scientific 12604021) digestion and were seeded in a 384-well collagen coated cell culture plate (Corning 356702) at a density of 15,000 cells/well, and incubated at 37° C., 5% CO2 overnight. […] RPMI medium 1640-GlutaMAX™—I was added to the intermediate plate and the contents of the intermediate plate were then transferred to the 384-well collagen coated cell culture plate, which was incubated at 37° C., 5% CO2 for 2 hours. After removal of medium from the collagen coated cell culture plate, cells were lysed in lysis buffer from Alpha SureFire® Ultra™ Multiplex p-ERK and total ERK assay kit (PerkinElmer MPSU-PTERK) containing Halt™ Protease and Phosphatase inhibitor cocktail (ThermoFisher Scientific 78446) at room temperature with constant shaking at 300 rpm for 30 minutes. The cell lysates were then transferred to an OptiPlate-384 plate (PerkinElmer 6005620), and the phosphorylation of ERK (p-ERK) and total ERK levels were detected by Alpha SureFire® Ultra™ Multiplex p-ERK kit and total ERK assay kit (PerkinElmer MPSU-PTERK) following the manufacturer's protocol. Assay plates were read on a EnVision Multimode Plate Reader (PerkinElmer), and the ratio of p-ERK vs. total ERK in each well was used as the final readout. Dose response curves were analyzed using a 4-parameter logistic model to calculate IC50 values using Spotfire software.

[3] = system: NCI-H358 cells containing homozygous KRAS-G12C activating mutation (p-ERK); details: Homo sapiens, NCI-H358, 2 h, read-out: G12C H358 IC50 (nM)
Experimental: Procedure for Cellular Phospho-ERK Assay, G12C
NCI-H358 cells (ATCC® CRL-5807™), containing homozygous KRAS-G12C activating mutation, were cultured in T150 flask in growth medium (RPMI medium 1640-GlutaMAX™—I (ThermoFisher Scientific 61870) containing 10% fetal bovine serum (ThermoFisher Scientific 10091148)). The cells were harvested in growth medium after TrypLE (ThermoFisher scientific 12604021) digestion and were seeded in a 384-well collagen coated cell culture plate (Corning 356702) at a density of 15,000 cells/well, and incubated at 37° C., 5% CO2 overnight. […] RPMI medium 1640-GlutaMAX™—I was added to the intermediate plate and the contents of the intermediate plate were then transferred to the 384-well collagen coated cell culture plate, which was incubated at 37° C., 5% CO2 for 2 hours. After removal of medium from the collagen coated cell culture plate, cells were lysed in lysis buffer from Alpha SureFire® Ultra™ Multiplex p-ERK and total ERK assay kit (PerkinElmer MPSU-PTERK) containing Halt™ Protease and Phosphatase inhibitor cocktail (ThermoFisher Scientific 78446) at room temperature with constant shaking at 300 rpm for 30 minutes. The cell lysates were then transferred to an OptiPlate-384 plate (PerkinElmer 6005620), and the phosphorylation of ERK (p-ERK) and total ERK levels were detected by Alpha SureFire® Ultra™ Multiplex p-ERK kit and total ERK assay kit (PerkinElmer MPSU-PTERK) following the manufacturer's protocol. Assay plates were read on an EnVision Multimode Plate Reader (PerkinElmer), and the ratio of p-ERK vs. total ERK in each well was used as the final readout. Dose response curves were analyzed using a 4-parameter logistic model to calculate IC50 values using Spotfire software.

[4] = molecular target: NRAS (SEQ ID NO: 5) (Homo sapiens, UniProt P01111); experiment: SOS-catalyzed guanine nucleotide exchange (GNE) assay, NRAS
Experimental: as §1, §2, §3, §4

[5] = molecular target: Recombinant KRAS-G12V (SEQ ID NO: 3) (Homo sapiens, UniProt P01116, G12V); experiment: SOS-catalyzed guanine nucleotide exchange (GNE) assay, KRAS-G12V
Experimental: as §1, §2, §3, §4

[6] = molecular target: G13D (Homo sapiens, UniProt P01116, G13D); experiment: Guanine nucleotide exchange (GNE) assay, G13D; format: biochemical
Experimental: as §4

[7] = molecular target: Recombinant KRAS-G12D (SEQ ID NO: 2) (Homo sapiens, UniProt P01116, G12D); experiment: SOS-catalyzed guanine nucleotide exchange (GNE) assay, KRAS-G12D
Recombinant KRAS-G12D (SEQ ID NO: 2), sequence (P01116 with tags, fused parts or gaps isoform P01116-2 G12D): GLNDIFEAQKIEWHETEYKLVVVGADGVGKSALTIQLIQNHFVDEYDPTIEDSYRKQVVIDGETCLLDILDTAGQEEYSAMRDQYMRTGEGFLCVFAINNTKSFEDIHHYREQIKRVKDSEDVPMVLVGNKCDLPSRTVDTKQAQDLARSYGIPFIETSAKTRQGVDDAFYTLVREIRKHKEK
Experimental: as §1, §2, §3, §4

HRAS (SEQ ID NO: 4), sequence (P01112 with tags, fused parts or gaps): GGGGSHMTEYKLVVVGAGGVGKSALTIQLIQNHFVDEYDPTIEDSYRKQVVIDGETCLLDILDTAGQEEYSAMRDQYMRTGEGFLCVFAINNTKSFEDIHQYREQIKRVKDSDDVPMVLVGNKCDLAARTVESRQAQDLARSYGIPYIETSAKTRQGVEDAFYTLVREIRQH
Recombinant KRAS-G12V (SEQ ID NO: 3), sequence (P01116 with tags, fused parts or gaps isoform P01116-2 G12V): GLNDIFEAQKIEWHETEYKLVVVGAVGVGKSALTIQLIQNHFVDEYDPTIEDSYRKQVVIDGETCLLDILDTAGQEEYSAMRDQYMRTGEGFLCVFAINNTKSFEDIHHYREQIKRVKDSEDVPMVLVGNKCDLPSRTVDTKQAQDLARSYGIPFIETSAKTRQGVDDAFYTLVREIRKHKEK
NRAS (SEQ ID NO: 5), sequence (P01111 with tags, fused parts or gaps): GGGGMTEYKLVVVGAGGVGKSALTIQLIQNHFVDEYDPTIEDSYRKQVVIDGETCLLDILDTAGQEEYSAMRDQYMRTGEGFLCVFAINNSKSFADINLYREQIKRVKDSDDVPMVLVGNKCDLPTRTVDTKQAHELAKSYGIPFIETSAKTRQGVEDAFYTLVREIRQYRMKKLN
G13D, sequence (P01116 1-188 isoform P01116-2 G13D): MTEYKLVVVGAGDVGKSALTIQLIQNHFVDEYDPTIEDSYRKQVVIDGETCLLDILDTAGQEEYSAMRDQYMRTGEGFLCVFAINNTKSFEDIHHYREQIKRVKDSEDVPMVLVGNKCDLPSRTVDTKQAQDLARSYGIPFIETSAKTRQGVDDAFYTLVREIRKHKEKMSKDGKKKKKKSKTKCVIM

For `C#Cc1cccc2cc(O)cc(-c3c(Cl)cc4c(N5CCC[C@@](C)(O)C5)nc(OC[C@@]56CCCN5C[C@H](F)C6)nc4c3F)c12` [Ex-1, (3R)-1-(6-chloro-7-(8-ethynyl-3-hydroxvnaphthalen-1-yl)-8-fluoro-2-(((2R,7aS)-2-fluorotetrahydro-1H-pyrrolizin-7a(5H)-yl)methoxy)quinazolin-4-yl)-3-methylpiperidin-3-ol], the IC50 [1] was > 9.95 µM, the IC50 [2] was 70 nM and the IC50 [3] was 41 nM. For the same compound, the IC50 [4] was > 9.95 µM.
For `CN(C)CC1(COc2nc(N3CCCC(C)(O)C3)c3cc(F)c(-c4cc(O)cc5ccccc45)c(F)c3n2)CC1` (stereo not shown) [Ex-8, 1-(2-((1-((dimethylamino)methyl)cyclopropyl)methoxy)-6,8-difluoro-7-(3-hydroxynaphthalen-1-yl)quinazolin-4-yl)-3-methylpiperidin-3-ol], the IC50 [1] was > 9.95 µM and the IC50 [4] was > 9.95 µM.
`CN(C)CC1(COc2nc(N3CCCC(O)CC3)c3cc(Cl)c(-c4ccc(F)c5sc(N)nc45)c(F)c3n2)CC1` (stereo not shown) [Ex-17, 1-(7-(2-amino-7-fluorobenzo[d]thiazol-4-yl)-6-chloro-2-((1-((dimethylamino)methyl)cyclopropyl)methoxy)-8-fluoroquinazolin-4-yl)azepan-4-ol] was tested, and the IC50 [1] was > 9.95 µM, the IC50 [5] was 237 nM and the IC50 [6] was 341 nM. For the same compound, the IC50 [4] was > 9.95 µM and the IC50 [7] was 283 nM.
For `Cc1cc2[nH]ncc2c(-c2c(F)cc3c(N4CCOC[C@@](C)(O)C4)nc(OC[C@@]45CCCN4C[C@H](F)C5)nc3c2F)c1C(F)(F)F` [Ex-41, (6S)-4-(6,8-difluoro-2-(((2R,7aS)-2-fluorotetrahydro-1H-pyrrolizin-7a(5H)-yl)methoxy)-7-(6-methyl-5-(trifluoromethyl)-1H-indazol-4-yl)quinazolin-4-yl)-6-methyl-1,4-oxazepan-6-ol], the IC50 [1] was > 11.1 µM, the IC50 [2] was 285 nM and the IC50 [5] was 60 nM. For the same compound, the IC50 [3] was 203 nM, the IC50 [6] was 48 nM and the IC50 [4] was > 11.1 µM. For the same compound, the IC50 [7] was 33 nM.
With `C#Cc1cccc2cc(O)cc(-c3c(F)cc4c(N5CCC[C@@](C)(O)C5)nc(OC[C@@]56CCCN5C[C@H](F)C6)nc4c3F)c12` [Ex-42, (3R)-1-(7-(8-ethynyl-3-hydroxvnaphthalen-1-yl)-6,8-difluoro-2-(((2R,7aS)-2-fluorotetrahydro-1H-pyrrolizin-7a(5H)-yl)methoxy)quinazolin-4-yl)-3-methylpiperidin-3-ol] the IC50 [1] was > 10 µM, the IC50 [2] was 91 nM and the IC50 [5] was 3 nM. For the same compound, the IC50 [3] was 58 nM, the IC50 [6] was 4 nM and the IC50 [4] was > 10 µM. For the same compound, the IC50 [7] was 3 nM.
